In US7893288B2, “Poly-halogenated triazapentadiene compositions” (Board of Regents, The University of Texas System, priority 2007, dated 2011):
≈ marks a conversion by molar mass, not a printed value. Where “and” joins values, the source holds several entries; their conditions need not be identical. Identical values can stand only once. Marks after values point to notes of the source that are not given here.

Legend:
Type in all cases: cell-based
[1] = tested on: Staphylococcus aureus (ATCC 25923); assay: Disk sensitivity test (modified Kirby-Bauer), S. aureus;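 note: Compound-loaded filter disks on LB agar plates seeded with a confluent bacterial lawn, compound dissolved in DMSO, plates kept overnight at 37 °C, then inhibition zone around disk measured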
Method: (§2) Filter disks were provided as sterile filter paper (about 6 mm in diameter) and spotted with 20 μL of a selected compound. Each compound was initially dissolved in dimethylsulfoxide (DMSO); any subsequent dilutions were also made in DMSO. Each filter was placed on an LB agar plate spread with 100 μL of a bacterial culture that had been grown overnight in suitable LB broth. Plates were incubated overnight at 37° C., after which, the extent of growth inhibition around each filter disk was measured. Bacterial strains included Staphylococcus aureus (ATCC 25923), Pseudomonas aeruginosa PAO1, Bacillus subtilis W168 and Escherichia coli HB101. […] The latter two strains are non-pathogenic Gram-positive and Gram-negative bacterial strains, respectively.

[2] = tested on: Gram-positive bacteria (e.g., S. aureus and B. subtilis); assay: Growth inhibition of Gram-positive bacteria, summary of TABLES 6-19
Method: (§1) The new class of fluorinated triazapentadiene compounds with and without metal complexation as described herein were analyzed for antibacterial activity against several bacterial strains (both Gram positive and Gram negative). Methods for antimicrobial analysis included a modified Kirby-Bauer method and a determination of their minimum inhibitory concentrations. In brief, the modified Kirby-Bauer method relied on placement of a filter disk impregnated with a desired compound on a solid growth medium. Bacteria were grown to a confluent lawn and the extent of growth inhibition was measured (e.g., as an extent/percentage of a clear zone on the disk and/or solid medium).
Filter disks were provided as sterile filter paper (about 6 mm in diameter) and spotted with 20 μL of a selected compound. Each compound was initially dissolved in dimethylsulfoxide (DMSO); any subsequent dilutions were also made in DMSO. Each filter was placed on an LB agar plate spread with 100 μL of a bacterial culture that had been grown overnight in suitable LB broth. Plates were incubated overnight at 37° C., after which, the extent of growth inhibition around each filter disk was measured. Bacterial strains included Staphylococcus aureus (ATCC 25923), Pseudomonas aeruginosa PAO1, Bacillus subtilis W168 and Escherichia coli HB101. […]

[3] = tested on: Escherichia coli HB101; assay: Disk sensitivity test (modified Kirby-Bauer), E. coli;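 note: filter disk loaded with compound in DMSO laid on an LB agar bacterial lawn, kept overnight at 37 °C, then the inhibition zone around the disk is measured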
Method: as §2

[4] = tested on: Staphylococcus aureus (ATCC 25923); assay: Minimum inhibitory concentration in LB broth, S. aureus; settings: for Relative to AgNO3: efficacy per mole from MIC values
[5] = tested on: Escherichia coli HB101; assay: Minimum inhibitory concentration in LB broth, E. coli; settings: for Relative to AgNO3: efficacy per mole from MIC values;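 for all read-outs here: broth dilution MIC, test compounds first taken up in DMSO, then serially diluted in LB medium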
[6] = tested on: Bacillus subtilis W168; assay: Minimum inhibitory concentration in LB broth, B. subtilis; settings: for Relative to AgNO3: efficacy per mole from MIC values
[7] = tested on: Bacillus subtilis W168; assay: Disk sensitivity test (modified Kirby-Bauer), B. subtilis;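 note: Compound-loaded filter disks on LB agar plates seeded with a bacterial lawn, plates held overnight at 37 °C, then the clear zone around each disk measured, compounds in DMSO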
Method: as §2

[8] = tested on: Pseudomonas aeruginosa PAO1; assay: Minimum inhibitory concentration in LB broth, P. aeruginosa; settings: for Relative to AgNO3: efficacy per mole from MIC values
[9] = tested on: Pseudomonas aeruginosa PAO1; assay: Disk sensitivity test (modified Kirby-Bauer), P. aeruginosa;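 note: Compound-loaded filter disks on LB agar lawns, DMSO as solvent, zone of inhibition around each disk read after overnight incubation at 37 °C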
Method: as §2

[10] = tested on: Gram positive and Gram negative bacteria; assay: Antimicrobial activity, summary of TABLES 16-18
Method: as §1
For MIC assessment, compounds were initially dissolved in DMSO and serial dilutions of soluble compounds were made in LB broth.

SMILES: Cc1cc(C)c(N=C(N=C(Nc2c(C)cc(C)cc2C)C(F)(F)C(F)(F)C(F)(F)F)C(F)(F)C(F)(F)C(F)(F)F)c(C)c1 [[N{(C3F7)C(Mes)N}2]H]
- Diameter of the zone of growth inhibition ([1]; 5.7 × 10^0 mM): 7.5 mm
- Diameter of the zone of growth inhibition ([1]; 5.7 × 10^1 mM): 9.5 mm
- Diameter of the zone of growth inhibition ([1]; 5.7 × 10^−1 mM): 6.0 (NZ) mm
- Diameter of the zone of growth inhibition ([1]; 5.7 × 10^−2 mM): 6.0 (NZ) mm
- Diameter of the zone of growth inhibition ([1]; 5.7 × 10^−3 mM): 6.0 (NZ) mm
- antibacterial activity against Gram-positive organisms (in words) [2]: less effective
- Diameter of the zone of growth inhibition ([3]; 5.7 × 10^0 mM): 8.0 mm
- Diameter of the zone of growth inhibition ([3]; 5.7 × 10^1 mM): 10.0 mm
- Diameter of the zone of growth inhibition ([3]; 5.7 × 10^−1 mM): 7.5 mm
- Diameter of the zone of growth inhibition ([3]; 5.7 × 10^−2 mM): 7.0 mm
- Diameter of the zone of growth inhibition ([3]; 5.7 × 10^−3 mM): 7.0 mm
- MIC [4]: 2252.38 μg/ml and 3.50 mM
- Relative to AgNO3 [4]: 2.10 × 10^−2
- MIC [5]: 1126.88 μg/ml and 1.75 mM
- Relative to AgNO3 [5]: 3.37 × 10^−2
- MIC [6]: 2.69 mM (≈ 1730 µg/mL)
- Relative to AgNO3 [6]: 5.46 × 10^−2
- Diameter of the zone of growth inhibition ([7]; 5.7 × 10^0 mM): 8.0 mm
- Diameter of the zone of growth inhibition ([7]; 5.7 × 10^1 mM): 9.0 mm
- Diameter of the zone of growth inhibition ([7]; 5.7 × 10^−1 mM): 6.0 (NZ) mm
- Diameter of the zone of growth inhibition ([7]; 5.7 × 10^−2 mM): 6.0 (NZ) mm
- Diameter of the zone of growth inhibition ([7]; 5.7 × 10^−3 mM): 6.0 (NZ) mm
- MIC [8]: 1402.43 μg/ml and 2.18 mM
- Relative to AgNO3 [8]: 8.44 × 10^−3
- Diameter of the zone of growth inhibition ([9]; 5.7 × 10^0 mM): 8.5 mm
- Diameter of the zone of growth inhibition ([9]; 5.7 × 10^1 mM): 9.0 mm
- Diameter of the zone of growth inhibition ([9]; 5.7 × 10^−1 mM): 7.5 mm
- Diameter of the zone of growth inhibition ([9]; 5.7 × 10^−2 mM): 7.5 mm
- Diameter of the zone of growth inhibition ([9]; 5.7 × 10^−3 mM): 7.0 mm

SMILES: Fc1c(F)c(F)c(N=C(N=C([N]([Ag])c2c(F)c(F)c(F)c(F)c2F)C(F)(F)C(F)(F)C(F)(F)F)C(F)(F)C(F)(F)C(F)(F)F)c(F)c1F [[N{(C3F7)C(C6F5)N}2]Ag]
- Diameter of the zone of growth inhibition ([1]; 5.7 × 10^0 mM): 33.0 mm
- Diameter of the zone of growth inhibition ([1]; 5.7 × 10^1 mM): 70.0 mm
- Diameter of the zone of growth inhibition ([1]; 5.7 × 10^−1 mM): 39.0 mm
- Diameter of the zone of growth inhibition ([1]; 5.7 × 10^−2 mM): 21.5 mm
- Diameter of the zone of growth inhibition ([1]; 5.7 × 10^−3 mM): 10.0 mm
- Diameter of the zone of growth inhibition ([1]; 5.7 × 10^−4 mM): 6.0 (NZ)^b mm
- Diameter of the zone of growth inhibition ([1]; 5.7 × 10^−5 mM): 6.0 (NZ) mm
- Diameter of the zone of growth inhibition ([1]; 5.7 × 10^−6 mM): 6.0 (NZ) mm
- Diameter of the zone of growth inhibition ([3]; 5.7 × 10^0 mM): 14.0 mm
- Diameter of the zone of growth inhibition ([3]; 5.7 × 10^1 mM): 18.0 mm
- Diameter of the zone of growth inhibition ([3]; 5.7 × 10^−1 mM): 11.0 mm
- Diameter of the zone of growth inhibition ([3]; 5.7 × 10^−2 mM): 8.5 mm
- Diameter of the zone of growth inhibition ([3]; 5.7 × 10^−3 mM): 8.0 mm
- Diameter of the zone of growth inhibition ([3]; 5.7 × 10^−4 mM): 6.0 (NZ) mm
- Diameter of the zone of growth inhibition ([3]; 5.7 × 10^−5 mM): 6.0 (NZ) mm
- Diameter of the zone of growth inhibition ([3]; 5.7 × 10^−6 mM): 6.0 (NZ) mm
- MIC [4]: 1.80 μg/ml and 2.13 × 10^−3 mM
- Relative to AgNO3 [4]: 34.45
- antimicrobial activity (in words) [10]: Effective
- MIC [5]: 23.69 μg/ml and 2.80 × 10^−2 mM
- sensitivity of the bacteria to the compound (in words) [5]: most sensitive
- Relative to AgNO3 [5]: 2.10
- MIC [6]: 1.80 μg/ml and 2.13 × 10^−3 mM
- Relative to AgNO3 [6]: 69.01
- Diameter of the zone of growth inhibition ([7]; 5.7 × 10^0 mM): 37.0 mm
- Diameter of the zone of growth inhibition ([7]; 5.7 × 10^1 mM): 47.0 mm
- Diameter of the zone of growth inhibition ([7]; 5.7 × 10^−1 mM): 38.0 mm
- Diameter of the zone of growth inhibition ([7]; 5.7 × 10^−2 mM): 22.0 mm
- Diameter of the zone of growth inhibition ([7]; 5.7 × 10^−3 mM): 11.0 mm
- Diameter of the zone of growth inhibition ([7]; 5.7 × 10^−4 mM): 7.5 mm
- Diameter of the zone of growth inhibition ([7]; 5.7 × 10^−5 mM): 6.0 (NZ) mm
- Diameter of the zone of growth inhibition ([7]; 5.7 × 10^−6 mM): 6.0 (NZ) mm
- MIC [8]: 23.69 μg/ml and 2.80 × 10^−2 mM
- sensitivity of the bacteria to the compound (in words) [8]: most sensitive
- Relative to AgNO3 [8]: 6.57 × 10^−1
- Diameter of the zone of growth inhibition ([9]; 5.7 × 10^0 mM): 16.5 mm
- Diameter of the zone of growth inhibition ([9]; 5.7 × 10^1 mM): 27.0 mm
- Diameter of the zone of growth inhibition ([9]; 5.7 × 10^−1 mM): 12.0 mm
- Diameter of the zone of growth inhibition ([9]; 5.7 × 10^−2 mM): 8.0 mm
- Diameter of the zone of growth inhibition ([9]; 5.7 × 10^−3 mM): 7.5 mm
- Diameter of the zone of growth inhibition ([9]; 5.7 × 10^−4 mM): 6.0 (NZ) mm
- Diameter of the zone of growth inhibition ([9]; 5.7 × 10^−5 mM): 6.0 (NZ) mm
- Diameter of the zone of growth inhibition ([9]; 5.7 × 10^−6 mM): 6.0 (NZ) mm

SMILES: FC(F)(F)C(F)(F)C(F)(F)C(=Nc1c(Cl)cccc1Cl)N=C([N]([Ag])c1c(Cl)cccc1Cl)C(F)(F)C(F)(F)C(F)(F)F [[N{(C3F7)C(2,6-Cl2C6H3)N}2]Ag]
- Diameter of the zone of growth inhibition ([1]; 5.7 × 10^0 mM): 16.5 mm
- Diameter of the zone of growth inhibition ([1]; 5.7 × 10^1 mM): 20.0 mm
- Diameter of the zone of growth inhibition ([1]; 5.7 × 10^−1 mM): 15.0 mm
- Diameter of the zone of growth inhibition ([1]; 5.7 × 10^−2 mM): 14.5 mm
- Diameter of the zone of growth inhibition ([1]; 5.7 × 10^−3 mM): 11.0 mm
- Diameter of the zone of growth inhibition ([1]; 5.7 × 10^−4 mM): 6.0 (NZ) mm
- Diameter of the zone of growth inhibition ([1]; 5.7 × 10^−5 mM): 6.0 (NZ) mm
- Diameter of the zone of growth inhibition ([3]; 5.7 × 10^0 mM): 16.0 mm
- Diameter of the zone of growth inhibition ([3]; 5.7 × 10^1 mM): 15.5 mm
- Diameter of the zone of growth inhibition ([3]; 5.7 × 10^−1 mM): 11.0 mm
- Diameter of the zone of growth inhibition ([3]; 5.7 × 10^−2 mM): 9.0 mm
- Diameter of the zone of growth inhibition ([3]; 5.7 × 10^−3 mM): 7.0 mm
- MIC [4]: 0.853 μg/ml and 1.12 × 10^−2 mM
- Relative to AgNO3 [4]: 69.43
- antimicrobial activity (in words) [10]: Effective
- MIC [5]: 72.20 μg/ml and 8.98 × 10^−2 mM
- sensitivity of the bacteria to the compound (in words) [5]: most sensitive
- Relative to AgNO3 [5]: 6.56 × 10^−1
- MIC [6]: 4.27 × 10^−1 μg/ml and 5.31 × 10^−4 mM
- Relative to AgNO3 [6]: 276.84
- Diameter of the zone of growth inhibition ([7]; 5.7 × 10^0 mM): 21.0 mm
- Diameter of the zone of growth inhibition ([7]; 5.7 × 10^1 mM): 19.5 mm
- Diameter of the zone of growth inhibition ([7]; 5.7 × 10^−1 mM): 18.0 mm
- Diameter of the zone of growth inhibition ([7]; 5.7 × 10^−2 mM): 19.0 mm
- Diameter of the zone of growth inhibition ([7]; 5.7 × 10^−3 mM): 12.0 mm
- Diameter of the zone of growth inhibition ([7]; 5.7 × 10^−4 mM): 6.0 (NZ) mm
- Diameter of the zone of growth inhibition ([7]; 5.7 × 10^−5 mM): 6.0 (NZ) mm
- MIC [8]: 72.20 μg/ml and 8.98 × 10^−2 mM
- sensitivity of the bacteria to the compound (in words) [8]: most sensitive
- Relative to AgNO3 [8]: 2.05 × 10^−1
- Diameter of the zone of growth inhibition ([9]; 5.7 × 10^0 mM): 13.5 mm
- Diameter of the zone of growth inhibition ([9]; 5.7 × 10^1 mM): 15.0 mm
- Diameter of the zone of growth inhibition ([9]; 5.7 × 10^−1 mM): 10.0 mm
- Diameter of the zone of growth inhibition ([9]; 5.7 × 10^−2 mM): 7.0 mm
- Diameter of the zone of growth inhibition ([9]; 5.7 × 10^−3 mM): 6.0 (NZ) mm
